Columns and labels:
Format in all cases: functional
HL-60(TB) = assay: Growth inhibition of human HL-60(TB) cells assessed as cell growth at 10^-8 M incubated for 48 hrs by sulforhodamine B assay relative to control; conditions: HL-60, 48 h, read-out: Activity
A549 = assay: Growth inhibition of human A549/ATCC cells assessed as cell growth at 10^-8 M incubated for 48 hrs by sulforhodamine B assay relative to control; conditions: A549, 48 h, read-out: Activity
NCI-H23 = assay: Growth inhibition of human NCI-H23 cells assessed as cell growth at 10^-8 M incubated for 48 hrs by sulforhodamine B assay relative to control; conditions: NCI-H23, 48 h, read-out: Activity
Malme-3M [1] = assay: Growth inhibition of human MALME-3M cells assessed as cell growth at 10^-8 M incubated for 48 hrs by sulforhodamine B assay relative to control; conditions: read-out: Activity
SK-MEL-2 [2] = assay: Growth inhibition of human SK-MEL-2 cells assessed as cell growth at 10^-8 M incubated for 48 hrs by sulforhodamine B assay relative to control; conditions: SK-MEL-2, 48 h, read-out: Activity
UACC-257 = assay: Growth inhibition of human UACC257 cells assessed as cell growth at 10^-8 M incubated for 48 hrs by sulforhodamine B assay relative to control; conditions: UACC-257, 48 h, read-out: Activity
OVCAR-8 = assay: Growth inhibition of human OVCAR8 cells assessed as cell growth at 10^-8 M incubated for 48 hrs by sulforhodamine B assay relative to control; conditions: OVCAR-8, 48 h, read-out: Activity
RXF 393 = assay: Growth inhibition of human RXF393 cells assessed as cell growth at 10^-8 M incubated for 48 hrs by sulforhodamine B assay relative to control; conditions: RXF 393, 48 h, read-out: Activity
UO-31 [3] = assay: Growth inhibition of human UO31 cells assessed as cell growth at 10^-8 M incubated for 48 hrs by sulforhodamine B assay relative to control; conditions: UO-31, 48 h, read-out: Activity
SF-268 = assay: Growth inhibition of human SF268 cells assessed as cell growth at 10^-7 M incubated for 48 hrs by sulforhodamine B assay relative to control; conditions: SF-268, 48 h, read-out: Activity
Malme-3M [4] = assay: Growth inhibition of human MALME-3M cells assessed as cell growth at 10^-7 M incubated for 48 hrs by sulforhodamine B assay relative to control; conditions: read-out: Activity
M14 [5] = assay: Growth inhibition of human M14 cells assessed as cell growth at 10^-7 M incubated for 48 hrs by sulforhodamine B assay relative to control; conditions: M14, 48 h, read-out: Activity
SK-OV-3 = assay: Growth inhibition of human SKOV3 cells assessed as cell growth at 10^-7 M incubated for 48 hrs by sulforhodamine B assay relative to control; conditions: SK-OV-3, 48 h, read-out: Activity
MDA-MB-468 = assay: Growth inhibition of human MDA-MB-468 cells assessed as cell growth at 10^-7 M incubated for 48 hrs by sulforhodamine B assay relative to control; conditions: MDA-MB-468, 48 h, read-out: Activity
CCRF-CEM = assay: Growth inhibition of human CCRF-CEM cells assessed as cell growth at 10^-6 M incubated for 48 hrs by sulforhodamine B assay relative to control; conditions: read-out: Activity
EKVX [6] = assay: Growth inhibition of human EKVX cells assessed as cell growth at 10^-6 M incubated for 48 hrs by sulforhodamine B assay relative to control; conditions: read-out: Activity
U-251 = assay: Growth inhibition of human U251 cells assessed as cell growth at 10^-6 M incubated for 48 hrs by sulforhodamine B assay relative to control; conditions: U-251, 48 h, read-out: Activity
LOX IMVI = assay: Growth inhibition of human LOXIMVI cells assessed as cell growth at 10^-6 M incubated for 48 hrs by sulforhodamine B assay relative to control; conditions: read-out: Activity
CAKI-1 [7] = assay: Growth inhibition of human Caki1 cells assessed as cell growth at 10^-6 M incubated for 48 hrs by sulforhodamine B assay relative to control; conditions: CAKI-1, 48 h, read-out: Activity
UO-31 [8] = assay: Growth inhibition of human UO31 cells assessed as cell growth at 10^-6 M incubated for 48 hrs by sulforhodamine B assay relative to control; conditions: UO-31, 48 h, read-out: Activity
SR = assay: Growth inhibition of human SR cells assessed as cell growth at 10^-5 M incubated for 48 hrs by sulforhodamine B assay relative to control; conditions: read-out: Activity
HCT-116 = assay: Growth inhibition of human HCT116 cells assessed as cell growth at 10^-5 M incubated for 48 hrs by sulforhodamine B assay relative to control; conditions: HCT-116, 48 h, read-out: Activity
SW-620 = assay: Growth inhibition of human SW620 cells assessed as cell growth at 10^-5 M incubated for 48 hrs by sulforhodamine B assay relative to control; conditions: SW-620, 48 h, read-out: Activity
Malme-3M [9] = assay: Growth inhibition of human MALME-3M cells assessed as cell growth at 10^-5 M incubated for 48 hrs by sulforhodamine B assay relative to control; conditions: read-out: Activity
SK-MEL-2 [10] = assay: Growth inhibition of human SK-MEL-2 cells assessed as cell growth at 10^-5 M incubated for 48 hrs by sulforhodamine B assay relative to control; conditions: SK-MEL-2, 48 h, read-out: Activity
786-0 = assay: Growth inhibition of human 786-0 cells assessed as cell growth at 10^-5 M incubated for 48 hrs by sulforhodamine B assay relative to control; conditions: 786-0, 48 h, read-out: Activity
A498 = assay: Growth inhibition of human A498 cells assessed as cell growth at 10^-5 M incubated for 48 hrs by sulforhodamine B assay relative to control; conditions: A498, 48 h, read-out: Activity
ACHN = assay: Growth inhibition of human ACHN cells assessed as cell growth at 10^-5 M incubated for 48 hrs by sulforhodamine B assay relative to control; conditions: read-out: Activity
CAKI-1 [11] = assay: Growth inhibition of human Caki1 cells assessed as cell growth at 10^-5 M incubated for 48 hrs by sulforhodamine B assay relative to control; conditions: CAKI-1, 48 h, read-out: Activity
Hs-578T = assay: Growth inhibition of human Hs 578T cells assessed as cell growth at 10^-5 M incubated for 48 hrs by sulforhodamine B assay relative to control; conditions: read-out: Activity
EKVX [12] = assay: Growth inhibition of human EKVX cells assessed as cell growth at 10^-4 M incubated for 48 hrs by sulforhodamine B assay relative to control; conditions: read-out: Activity
SNB-19 = assay: Growth inhibition of human SNB19 cells assessed as cell growth at 10^-4 M incubated for 48 hrs by sulforhodamine B assay relative to control; conditions: SNB-19, 48 h, read-out: Activity
M14 [13] = assay: Growth inhibition of human M14 cells assessed as cell growth at 10^-4 M incubated for 48 hrs by sulforhodamine B assay relative to control; conditions: M14, 48 h, read-out: Activity
SK-MEL-28 = assay: Growth inhibition of human SK-MEL-28 cells assessed as cell growth at 10^-4 M incubated for 48 hrs by sulforhodamine B assay relative to control; conditions: SK-MEL-28, 48 h, read-out: Activity
OVCAR-5 = assay: Growth inhibition of human OVCAR5 cells assessed as cell growth at 10^-4 M incubated for 48 hrs by sulforhodamine B assay relative to control; conditions: OVCAR-5, 48 h, read-out: Activity

`CCCCOc1nc2ccccc2cc1C1CNC(=O)c2ccccc2N1` (stereo not given) gave a growth at 0.01 µM (HL-60(TB)) of 98%, a growth at 0.01 µM (A549) of 100% and a growth at 0.01 µM (NCI-H23) of 95%. The growth at 0.01 µM (Malme-3M [1]) was 88%, the growth at 0.01 µM (SK-MEL-2 [2]) was 96% and the growth at 0.01 µM (UACC-257) was 97%. For the same molecule, the growth at 0.01 µM (OVCAR-8) was 100%, the growth at 0.01 µM (RXF 393) was 100% and the growth at 0.01 µM (UO-31 [3]) was 80%. It also gave a growth at 0.1 µM (SF-268) of 92%, a growth at 0.1 µM (Malme-3M [4]) of 92% and a growth at 0.1 µM (M14 [5]) of 91%. It also gave a growth at 0.1 µM (SK-OV-3) of 98%, a growth at 0.1 µM (MDA-MB-468) of 93% and a growth at 1 µM (CCRF-CEM) of 85%. The growth at 1 µM (EKVX [6]) was 89%, the growth at 1 µM (U-251) was 85% and the growth at 1 µM (LOX IMVI) was 80%. It also gave a growth at 1 µM (CAKI-1 [7]) of 70%, a growth at 1 µM (UO-31 [8]) of 61% and a growth at 10 µM (SR) of 1%. For the same molecule, the growth at 10 µM (HCT-116) was -19%, the growth at 10 µM (SW-620) was 18% and the growth at 10 µM (Malme-3M [9]) was 41%. The growth at 10 µM (SK-MEL-2 [10]) was 33%, the growth at 10 µM (786-0) was 1% and the growth at 10 µM (A498) was -21%. It also gave a growth at 10 µM (ACHN) of 22%, a growth at 10 µM (CAKI-1 [11]) of 25% and a growth at 10 µM (Hs-578T) of 28%. The growth at 100 µM (EKVX [12]) was -3%, the growth at 100 µM (SNB-19) was -5% and the growth at 100 µM (M14 [13]) was -52%. It also gave a growth at 100 µM (SK-MEL-28) of -57% and a growth at 100 µM (OVCAR-5) of -24%.
